Experimental data: PubChem BioAssay AID256 (DTP/NCI, 2004)
Values joined by “and” are separate entries in the source; they are usually repeats but may differ in a detail not shown here. Identical values can stand only once. Toxic doses and inconclusive results are not listed. How the source made its calls: active means survival T/C of 150% or more; inactive means T/C below 125% in these data.

Tested on: CD2F1 mice, L1210 leukemia ip, survival T/C
Experiment: NCI In Vivo Anticancer Drug Screen. Data for tumor model L1210 Leukemia (intraperitoneal) in CD2F1 (CDF1) mice
Conditions: higher = longer survival
How it was run: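 Antitumor effect is scored in animals hosting a serially transplanted tumor. Values compare compound-dosed animals against vehicle-only controls as a simple quotient.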

[1] = endpoint: mean survival time, dose: 100.0 mg/kg/injection, schedule: Q01DX009 (ip), vehicle: saline with Tween-80
[2] = endpoint: mean survival time, dose: 100.0 mg/kg/injection, schedule: Q04DX003 (ip), vehicle: saline with Tween-80
[3] = endpoint: mean survival time, dose: 200.0 mg/kg/injection, schedule: Q01DX009 (ip), vehicle: saline with Tween-80
[4] = endpoint: mean survival time, dose: 200.0 mg/kg/injection, schedule: Q04DX003 (ip), vehicle: saline with Tween-80
[5] = endpoint: mean survival time, dose: 400.0 mg/kg/injection, schedule: Q04DX003 (ip), vehicle: saline with Tween-80
[6] = endpoint: mean survival time, dose: 400.0 mg/kg/injection, schedule: Q01DX009 (ip), vehicle: saline with Tween-80
[7] = endpoint: mean survival time, dose: 100.0 mg/kg/injection, schedule: Q01DX001 (ip), vehicle: saline with Tween-80
[8] = endpoint: mean survival time, dose: 200.0 mg/kg/injection, schedule: Q01DX001 (ip), vehicle: saline with Tween-80
[9] = endpoint: mean survival time, dose: 400.0 mg/kg/injection, schedule: Q01DX001 (ip), vehicle: saline with Tween-80

Measured: T/C

Cc1cc(CC(Cl)(C(F)(F)F)C(F)(F)F)cc(CC(Cl)(C(F)(F)F)C(F)(F)F)n1
inactive: endpoint: mean survival time, dose: 12.5 mg/kg/injection, schedule: Q04DX003 (ip), vehicle: saline with Tween-80 97 % of control | endpoint: mean survival time, dose: 25.0 mg/kg/injection, schedule: Q04DX003 (ip), vehicle: saline with Tween-80 97 % of control | endpoint: mean survival time, dose: 50.0 mg/kg/injection, schedule: Q04DX003 (ip), vehicle: saline with Tween-80 97 % of control

N#CC(OC(=O)c1ccccc1)c1cccc([N+](=O)[O-])c1 (stereo unspecified)
inactive: [1] 98 % of control | [2] 101 % of control | [3] 96 % of control | [4] 96 % of control | [5] 100 % of control

CCOC(=O)C(C#N)N=Nc1ccccc1 (stereo unspecified)
inactive: [1] 95 % of control | [3] 95 % of control | [6] 95 % of control

O=C1c2ccccc2C(=O)N1CCBr
inactive: [7] 102 % of control | [8] 109 % of control | [9] 111 % of control

OC1CC2CCC(C1)N2CCCN1c2ccccc2Sc2ccc(Cl)cc21 (stereo unspecified)
inactive: endpoint: mean survival time, dose: 7.5 mg/kg/injection, schedule: Q01DX009 (ip), vehicle: saline 91 % of control | endpoint: mean survival time, dose: 15.0 mg/kg/injection, schedule: Q01DX009 (ip), vehicle: saline 98 % of control | endpoint: mean survival time, dose: 18.0 mg/kg/injection, schedule: Q04DX003 (ip), vehicle: saline with Tween-80 99 % of control | endpoint: mean survival time, dose: 27.0 mg/kg/injection, schedule: Q04DX003 (ip), vehicle: saline with Tween-80 94 % of control | endpoint: mean survival time, dose: 30.0 mg/kg/injection, schedule: Q01DX009 (ip), vehicle: saline 109 % of control | endpoint: mean survival time, dose: 40.0 mg/kg/injection, schedule: Q04DX003 (ip), vehicle: saline with Tween-80 103 % of control | endpoint: mean survival time, dose: 60.0 mg/kg/injection, schedule: Q04DX003 (ip), vehicle: saline with Tween-80 123 % of control

CCN(C)c1cc2c3c(c1)CCCN3CCC2
inactive: endpoint: mean survival time, dose: 1.25 mg/kg/injection, schedule: Q01DX009 (ip), vehicle: saline 103 % of control | endpoint: mean survival time, dose: 2.5 mg/kg/injection, schedule: Q01DX009 (ip), vehicle: saline 104 % of control | endpoint: mean survival time, dose: 5.0 mg/kg/injection, schedule: Q01DX001 (ip), vehicle: saline 100 % of control | endpoint: mean survival time, dose: 5.0 mg/kg/injection, schedule: Q01DX009 (ip), vehicle: saline 98 % of control | endpoint: mean survival time, dose: 10.0 mg/kg/injection, schedule: Q01DX001 (ip), vehicle: saline 101 % of control | endpoint: mean survival time, dose: 20.0 mg/kg/injection, schedule: Q01DX001 (ip), vehicle: saline 102 % of control

C/C(=N/O)c1ccc(C)cc1
inactive: [1] 94 % of control | [2] 105 % of control | [3] 91 % of control | [4] 107 % of control | [6] 93 % of control | [5] 102 % of control

C=Cc1ccc(Oc2ccccc2)cc1
inactive: [2] 93 % of control | [4] 97 % of control | [5] 90 % of control

Cn1c(=O)[nH]cc(C2OC(CO)C(O)C2O)c1=O (stereo unspecified)
inactive: endpoint: median survival time, dose: 12.5 mg/kg/injection, schedule: Q01DX005 (ip), vehicle: saline 103 % of control | endpoint: median survival time, dose: 25.0 mg/kg/injection, schedule: Q01DX005 (ip), vehicle: saline 100 % of control | endpoint: median survival time, dose: 50.0 mg/kg/injection, schedule: Q01DX005 (ip), vehicle: saline 92 % of control | endpoint: median survival time, dose: 100.0 mg/kg/injection, schedule: Q01DX005 (ip), vehicle: saline 100 % of control | endpoint: median survival time, dose: 200.0 mg/kg/injection, schedule: Q01DX005 (ip), vehicle: saline 107 % of control

O=C1Nc2ccccc2C(=O)Nc2ccccc21
inactive: endpoint: mean survival time, dose: 100.0 mg/kg/injection, schedule: Q01DX009 (ip), vehicle: Klucel (hydroxypropylcellulose) (HPC) 93 % of control | endpoint: mean survival time, dose: 200.0 mg/kg/injection, schedule: Q01DX009 (ip), vehicle: Klucel (hydroxypropylcellulose) (HPC) 89 % of control

COCC(=O)C(C(C)=O)C(c1ccc(OC)cc1)C(C(C)=O)C(=O)COC (stereo unspecified)
inactive: [7] 101 % of control | [8] 98 % of control | [9] 95 % of control

CCCCCCCCc1ccc(NNC(N)=S)cc1
inactive: endpoint: mean survival time, dose: 1.56 mg/kg/injection, schedule: Q01DX009 (ip), vehicle: saline 93 % of control and 98 % of control and 101 % of control | endpoint: mean survival time, dose: 3.12 mg/kg/injection, schedule: Q01DX009 (ip), vehicle: saline 96 % of control (2×) and 106 % of control | endpoint: mean survival time, dose: 6.25 mg/kg/injection, schedule: Q01DX009 (ip), vehicle: saline 96 % of control and 97 % of control and 104 % of control | endpoint: mean survival time, dose: 12.5 mg/kg/injection, schedule: Q01DX009 (ip), vehicle: saline 97 % of control (2×) and 101 % of control

O=C(O)C1CC2C(=O)CCCCCCC2C1O (stereo unspecified)
inactive: [7] 93 % of control | [1] 98 % of control | [8] 98 % of control | [3] 93 % of control | [9] 91 % of control | [6] 96 % of control

Cc1ccc(CSCc2ccc(C)cc2)cc1
inactive: endpoint: mean survival time, dose: 100.0 mg/kg/injection, schedule: Q04DX003 (ip), vehicle: other 100 % of control | endpoint: mean survival time, dose: 200.0 mg/kg/injection, schedule: Q04DX003 (ip), vehicle: other 107 % of control | endpoint: mean survival time, dose: 400.0 mg/kg/injection, schedule: Q04DX003 (ip), vehicle: other 97 % of control

CN(CCSSCCN(C)/N=C/c1ccccc1)/N=C/c1ccccc1
inactive: [2] 97 % of control | [4] 101 % of control | [5] 101 % of control

CCCN(CCC)C(=O)[S-].CCCN(CCC)C(=O)[S-].[Ni+2]
inactive: endpoint: mean survival time, dose: 6.25 mg/kg/injection, schedule: Q01DX009 (ip), vehicle: saline with Tween-80 95 % of control | endpoint: mean survival time, dose: 6.25 mg/kg/injection, schedule: Q04DX003 (ip), vehicle: saline sonified 99 % of control | endpoint: mean survival time, dose: 12.5 mg/kg/injection, schedule: Q01DX009 (ip), vehicle: saline with Tween-80 106 % of control | endpoint: mean survival time, dose: 12.5 mg/kg/injection, schedule: Q04DX003 (ip), vehicle: saline sonified 97 % of control | endpoint: mean survival time, dose: 25.0 mg/kg/injection, schedule: Q01DX009 (ip), vehicle: saline with Tween-80 106 % of control | endpoint: mean survival time, dose: 25.0 mg/kg/injection, schedule: Q04DX003 (ip), vehicle: saline sonified 103 % of control

CC(N)CCC(C)(C)O (stereo unspecified)
inactive: endpoint: mean survival time, dose: 100.0 mg/kg/injection, schedule: Q04DX003 (ip), vehicle: saline 92 % of control | endpoint: mean survival time, dose: 200.0 mg/kg/injection, schedule: Q04DX003 (ip), vehicle: saline 100 % of control

C=C(C)C1(CC)C(=O)NC(=S)N(C)C1=O (stereo unspecified)
inactive: endpoint: mean survival time, dose: 75.0 mg/kg/injection, schedule: Q01DX001 (ip), vehicle: saline 97 % of control | endpoint: mean survival time, dose: 150.0 mg/kg/injection, schedule: Q01DX001 (ip), vehicle: saline 101 % of control | endpoint: mean survival time, dose: 300.0 mg/kg/injection, schedule: Q01DX001 (ip), vehicle: saline 101 % of control

COc1cc2cc(c1Cl)N(C)C(=O)CC(OC(=O)C(C)N(C)C(=O)C(C)C)C1(C)OC1C(C)C1CC(O)(NC(=O)O1)C(OC)/C=C/C=C(C)C2OC (stereo unspecified)
inactive: endpoint: median survival time, dose: 4.0 micrograms/kg/injection, schedule: Q01DX009 (ip), vehicle: Klucel (hydroxypropylcellulose) (HPC) 104 % of control | endpoint: median survival time, dose: 8.0 micrograms/kg/injection, schedule: Q01DX009 (ip), vehicle: Klucel (hydroxypropylcellulose) (HPC) 112 % of control | endpoint: median survival time, dose: 16.0 micrograms/kg/injection, schedule: Q01DX009 (ip), vehicle: Klucel (hydroxypropylcellulose) (HPC) 112 % of control | endpoint: median survival time, dose: 64.0 micrograms/kg/injection, schedule: Q01DX009 (ip), vehicle: Klucel (hydroxypropylcellulose) (HPC) 105 % of control

O=S(=O)(O)C(I)S(=O)(=O)O
inactive: endpoint: mean survival time, dose: 100.0 mg/kg/injection, schedule: Q01DX001 (ip), vehicle: saline 97 % of control | endpoint: mean survival time, dose: 200.0 mg/kg/injection, schedule: Q01DX001 (ip), vehicle: saline 102 % of control | endpoint: mean survival time, dose: 400.0 mg/kg/injection, schedule: Q01DX001 (ip), vehicle: saline 114 % of control

Cc1ccc(NC(=O)c2ccccc2C(=O)O)cc1
inactive: [2] 101 % of control | [4] 97 % of control | [5] 95 % of control

O=S(=O)(c1ccc(Br)cc1)c1ccc(Br)cc1
inactive: [7] 112 % of control | [8] 102 % of control | [9] 97 % of control

Nc1ncnc(N)c1NC(=O)c1ccc(OCCOc2ccccc2)c(Cl)c1
inactive: [4] 88 % of control

CC(=O)NC(CSCC(=O)c1ccccc1)C(=O)O (stereo unspecified)
inactive: [2] 98 % of control | [4] 102 % of control | [5] 100 % of control

O=C1C2C(C(=O)N1c1ccccc1)C1c3ccccc3C2C2CCCCN21 (stereo unspecified)
inactive: endpoint: mean survival time, dose: 12.5 mg/kg/injection, schedule: Q04DX003 (ip), vehicle: Klucel (hydroxypropylcellulose) (HPC) 95 % of control | endpoint: mean survival time, dose: 25.0 mg/kg/injection, schedule: Q04DX003 (ip), vehicle: Klucel (hydroxypropylcellulose) (HPC) 101 % of control | endpoint: mean survival time, dose: 50.0 mg/kg/injection, schedule: Q04DX003 (ip), vehicle: Klucel (hydroxypropylcellulose) (HPC) 93 % of control

BrC1=C(c2ccccc2)SC(Br)=C(c2ccccc2)S1
inactive: [7] 94 % of control | [8] 87 % of control | [9] 91 % of control
